Where two headings read alike, the source gives them in different places.
Assays:
[1] = cited from earlier work; for Vit. E/Chol. ratio Incr.: above basal fasting ratio
[2] = per 1 mg, National Formulary; cited from earlier work
[3] = 400 IU daily soft gel capsule, six years, 601 subjects; cited from earlier work
LDL = conditions: gel-capsule, ex vivo lag time; cited from earlier work
[4] = 150 mg natural and 150 mg synthetic daily in soft gelatin capsule, ten days; cited from earlier work
[5] = cited from earlier work
[6] = in vivo; cited from earlier work
[7] = Stability of vitamin E in fortified milks and orange juice during refrigerated storage; format: physicochemical; conditions: 2-3 weeks in refrigerated milk
Source text: The stability of all-rac E, oil was also monitored in regular 1% milkfat-containing milk (abbreviated “regular milk”). […] Although the starting levels of vitamin E were not identical in the beverages studied, all products were stored identically (see above) up to the time of the vitamin assay. Since the nominal shelf-life for milk is two weeks, and for refrigerated orange juice is four weeks, comparisons of vitamin E losses were made after three weeks storage.

[8] = Loss of vitamin E during milk processing (pasteurization); format: physicochemical; conditions: heating, e.g. pasteurization
Description: In addition, as Applicant has described, normal processing of milk and other food products commonly includes heating, e.g., pasteurization.
Preparation of Vitamin E-Fortified Milks: Pasteurized non-fat (skim) milk containing 2,000 I.U. per quart vitamin A palmitate and 400 I.U. per quart vitamin D2 was prepared by H.P. Hood, Inc. (Chelsea Mass.). […] Fortified cream or oil was then blended with non-fortified skim milk to make three vitamin E-fortified milks containing fat (see below). […] Milk processing losses of vitamin E were measured and were compensated, by including an excess of vitamin E in the each milk formulation equal to the measured processing loss. Four milks were formulated as follows: […]
Preparation of Vitamin E-Fortified Milks: Preparation of milks, and the packaging and storage of milks by H.P. Hood, Inc. (Chelsea Mass.) were carried out as described for vitamin E-fortified milks in the first clinical study (see milk #3), except that the new milk (milk #21) was fortified with only 15 IU of all-rac-α-tocopherol acetate per serving. A portion of the milk batch was prepared without vitamins A and D (milk #20).

[9] = supplements greater than 100 IU per day, 6 years, elderly; cited from earlier work
[10] = ingestion of 1200 IU per day; cited from earlier work

CC(=O)Oc1c(C)c(C)c2c(c1C)CCC(C)(CCCC(C)CCCC(C)CCCC(C)C)O2 (racemic) [all-rac-α-tocopherol acetate]
Plasma Vit E Increase ([1]; capsules 25 IU/day, above basal fasting level): 19% | Vit. E/Chol. ratio Incr. ([1]; capsules 100 IU/day): 35% | Vit. E/Chol. ratio Incr. ([1]; capsules 200 IU/day): 65% | Vit. E/Chol. ratio Incr. ([1]; capsules 400 IU/day): 115% | specific activity (IU per milligram) [2]: 1.00 IU | average increase in plasma vitamin E [3]: 83%

Cc1c(C)c2c(c(C)c1O)CCC(C)(CCCC(C)CCCC(C)CCCC(C)C)O2 (racemic) [all-rac-α-tocopherol]
specific activity (IU per milligram) [2]: 1.10 IU | minimum dose which significantly decreases the susceptibility of LDL to oxidation (LDL): 400 IU/per day

CC(=O)Oc1c(C)c(C)c2c(c1C)CC[C@@](C)(CCC[C@H](C)CCC[C@H](C)CCCC(C)C)O2 [RRR-α-tocopherol acetate]
specific activity (IU per milligram) [2]: 1.36 IU | competitive bioavailability in plasma versus all-rac-α-tocopherol acetate [4]: up to two-fold greater

Cc1c(C)c2c(c(C)c1O)CC[C@@](C)(CCC[C@H](C)CCC[C@H](C)CCCC(C)C)O2 [RRR-α-tocopherol]
specific activity (IU per milligram) [2]: 1.49 IU | plasma vitamin E level, elevated ([5]; 400-800 IU daily dose, basal 34.2 μmol/L): 58 µmol/L | average elevation in the plasma vitamin E level above the basal fasting level ([5]; 400-800 IU daily dose): 70% | reduction of the risk of non-fatal heart attacks ([5]; 400 IU once per day in capsules, patients with coronary atherosclerosis): 77%

Cc1c(C)c2c(c(C)c1O)CC[C@@](C)(CCC[C@H](C)CCC[C@H](C)CCCC(C)C)O2 [α-tocopherol]
supplemented dose excreted in the feces [6]: 80-90%

vitamin E
shelf-life loss of vitamin E [7]: about 15% | loss of vitamin E associated with processing, generally [8]: 20-25% | loss of vitamin E associated with processing, typically [8]: 10-30% | reduction of CHD mortality [9]: 41-47% | reduction of all-cause mortality [9]: 27-34% | reduction of cancer mortality [9]: 22-23% | adverse effects [10]: no adverse effects have been observed
